In ChEMBL document CHEMBL1201862, “PubChem BioAssay data set” (2004):
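All cell lines were grown in 96-well plates and treated with compound for 48 hours. At the GI50, growth is halved.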 The source made the active and inactive calls. Cut-off read from the data, not from the text of the source: active = GI50 up to about 1.1 µM and inactive = higher.

Legend:
Assay in all cases: NCI-60 cell line screen, 48 h
IGROV-1 = tested on: IGROV-1
COLO 205 = tested on: COLO 205
ACHN = tested on: ACHN
HL-60 = tested on: HL-60
A549 = tested on: A549
SF-295 = tested on: SF-295
OVCAR-4 = tested on: OVCAR-4
SNB-75 = tested on: SNB-75
K562 = tested on: K562
KM12 = tested on: KM12
TK-10 = tested on: TK-10
UACC-257 = tested on: UACC-257
SK-MEL-28 = tested on: SK-MEL-28
MCF7 = tested on: MCF7
786-0 = tested on: 786-0
LOX IMVI = tested on: LOX IMVI
Malme-3M = tested on: Malme-3M
OVCAR-5 = tested on: OVCAR-5
U-251 = tested on: U-251
MOLT-4 = tested on: MOLT-4

Structure (SMILES) | GI50 (IGROV-1) | GI50 (COLO 205) | GI50 (ACHN) | GI50 (HL-60) | GI50 (A549) | GI50 (SF-295) | GI50 (OVCAR-4) | GI50 (SNB-75) | GI50 (K562) | GI50 (KM12) | GI50 (TK-10) | GI50 (UACC-257) | GI50 (SK-MEL-28) | GI50 (MCF7) | GI50 (786-0) | GI50 (LOX IMVI) | GI50 (Malme-3M) | GI50 (OVCAR-5) | GI50 (U-251) | GI50 (MOLT-4)
FC(F)(F)c1cccc(-c2nc3nc(Cl)c(Cl)nc3[nH]2)c1 | 2.99 µM (inactive) | 1.45 µM (inactive) | 2.63 µM (inactive) | 1.69 µM (inactive) | 2 µM (inactive) | 2.05 µM (inactive) | 2.28 µM (inactive) | 2.42 µM (inactive) | 1.74 µM (inactive) | 2.69 µM (inactive) | 4.95 µM (inactive) | 2.22 µM (inactive) | 3.13 µM (inactive) | 0.0241 µM (active) | 3.77 µM (inactive) | 2.92 µM (inactive) | 1.73 µM (inactive) | 2.48 µM (inactive) | 1.85 µM (inactive) | 2.18 µM (inactive)
COC(=O)c1cc(C)ccc1C1CN=NC12Cc1c(C)cc(C)cc1C2=O (stereo not given) | 38.2 µM (inactive) | 16.7 µM (inactive) | 40.5 µM (inactive) | 6.1 µM (inactive) | 26.7 µM (inactive) | 23.2 µM (inactive) | 16.9 µM (inactive) | 23.9 µM (inactive) | 18.4 µM (inactive) | 16.5 µM (inactive) | 34.1 µM (inactive) | 23.9 µM (inactive) | 51.1 µM (inactive) | 20.6 µM (inactive) | 25.7 µM (inactive) | 15.1 µM (inactive) | 11.8 µM (inactive) | 29.4 µM (inactive) | 27 µM (inactive) | 15.7 µM (inactive)
CCOC(=O)CCC(NC(=O)c1ccc(CNc2nc3cc(N)cc(N)c3nc2-c2ccccc2)cc1)C(=O)OCC (stereo not given) | > 87.1 µM (inactive) | 27.5 µM (inactive) | > 100 µM (inactive) | 10.7 µM (inactive) | > 100 µM (inactive) | > 100 µM (inactive) | 17.4 µM (inactive) | > 100 µM (inactive) | 15.3 µM (inactive) | > 85.7 µM (inactive) | > 100 µM (inactive) | 19 µM (inactive) | 28.2 µM (inactive) | > 87.3 µM (inactive) | > 100 µM (inactive) | 99.3 µM (inactive) | 18.3 µM (inactive) | > 100 µM (inactive) | > 100 µM (inactive) | 1.45 µM (inactive)
O=C1CNNC(CSc2nc3ccc(I)cc3c(=O)n2Cc2ccccc2)=N1 | 18 µM (inactive) | 14.1 µM (inactive) | 16.3 µM (inactive) | 2.23 µM (inactive) | 38.5 µM (inactive) | 20.4 µM (inactive) | 37.4 µM (inactive) | 11.6 µM (inactive) | 23.7 µM (inactive) | 28.1 µM (inactive) | 30.1 µM (inactive) | 26.4 µM (inactive) | 20.9 µM (inactive) | 28.4 µM (inactive) | 29.9 µM (inactive) | 18.2 µM (inactive) | 23.9 µM (inactive) | 41.2 µM (inactive) | 21.4 µM (inactive) | 31.9 µM (inactive)
S=C1N=C2C(=N1)n1c3c(c4ccccc41)CCCC23 (stereo not given) | 32.6 µM (inactive) | 42 µM (inactive) | > 100 µM (inactive) | 55.8 µM (inactive) | 29.2 µM (inactive) | 38.6 µM (inactive) | 67.5 µM (inactive) | > 100 µM (inactive) | 33.1 µM (inactive) | 49.2 µM (inactive) | > 100 µM (inactive) | 47.4 µM (inactive) | > 100 µM (inactive) | 24 µM (inactive) | 15.5 µM (inactive) | 14.6 µM (inactive) | 64.9 µM (inactive) | > 100 µM (inactive) | 35 µM (inactive) | 36.6 µM (inactive)
Cc1nc2c(=O)n3c4c(cccc4c2o1)CCC3 | 76.6 µM (inactive) | > 100 µM (inactive) | > 100 µM (inactive) | > 100 µM (inactive) | > 100 µM (inactive) | > 100 µM (inactive) | > 100 µM (inactive) | > 100 µM (inactive) | 72.8 µM (inactive) | > 100 µM (inactive) | > 100 µM (inactive) | > 100 µM (inactive) | > 100 µM (inactive) | > 100 µM (inactive) | > 100 µM (inactive) | > 100 µM (inactive) | > 100 µM (inactive) | > 100 µM (inactive) | 96.8 µM (inactive) | 37.9 µM (inactive)
COC(=O)C(Cc1ccccc1)NP(=O)(O)OCC1OC(n2ccc(N)nc2=O)C(O)C1O (stereo not given) | > 100 µM (inactive) | > 100 µM (inactive) | > 100 µM (inactive) | > 100 µM (inactive) | > 100 µM (inactive) | > 100 µM (inactive) | > 100 µM (inactive) | > 100 µM (inactive) | > 100 µM (inactive) | > 100 µM (inactive) | 40.8 µM (inactive) | > 100 µM (inactive) | > 100 µM (inactive) | > 100 µM (inactive) | > 100 µM (inactive) | > 100 µM (inactive) | > 100 µM (inactive) | > 100 µM (inactive) | > 100 µM (inactive) | 76 µM (inactive)
